Measurements reported in patent US7378375B1, “Substituted pyridine herbicides” (Syngenta Crop Protection, Inc., priority 2000, dated 2008).

What was measured:
[1] = test system: Monocotyledonous and dicotyledonous test plants; test: Herbicidal action before emergence of the plants (pre-emergence action), greenhouse pot test, 9-level rating after 4 weeks; assay type: in vivo; conditions: 250 g/ha, rated after 4 weeks, 9-level scale
Procedure, shortened: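 Compounds applied pre-emergence as a spray (500 l water/ha) of aqueous suspension or emulsion onto soil immediately after sowing mono- and dicot species in pots. Greenhouse-grown; damage rated after 4 weeks on a 9-level scale (1=complete damage, 9=no effect).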

[2] = test system: Monocotyledonous and dicotyledonous test plants; test: Post-emergence herbicidal action, greenhouse pot test, sprayed at the 2- to 3-leaf stage, 9-level rating after 2 to 3 weeks; assay type: in vivo; conditions: 250 g/ha, rated after 2 to 3 weeks, 9-level scale
Procedure, shortened: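 Plants grown in standard soil in pots; test substances sprayed at the 2- to 3-leaf stage at optimum dosage (500 l water/ha) as aqueous suspension or emulsion from formulated concentrates. Plants then kept in the greenhouse under optimum conditions; rated after 2 to 3 weeks on a 9-level scale (1=complete damage, 9=no effect).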

Structure (SMILES) | Pre-emergence action rating, Abutilon [1] | Pre-emergence action rating, Amaranthus [1] | Pre-emergence action rating, Chenop. [1] | Pre-emergence action rating, Digitaria [1] | Pre-emergence action rating, Echino. [1] | Pre-emergence action rating, Panicum [1] | Post-emergence action rating, Abutilon [2] | Post-emergence action rating, Amaranth [2] | Post-emergence action rating, Chenop. [2] | Post-emergence action rating, Digitaria [2] | Post-emergence action rating, Echino. [2] | Post-emergence action rating, Ipopur. [2] | Post-emergence action rating, Panicum [2] | Post-emergence action rating, Xanth. [2]
CS(=O)(=O)CCOCc1nc(C(F)(F)F)ccc1C(=O)C1=C(O)C2CCC(C2)C1=O (centres unmarked) [A819-B52] | 1 | 2 | 1 | 9 | 7 | 7 | 2 | 2 | 1 | 3 | 2 | 2 | 2 | 2
COc1cc(OC)nc(SCc2nc(C(F)(F)F)ccc2C(=O)C2=C(O)C3CCC(C3)C2=O)n1 (centres unmarked) [A830-B52] | 5 | 4 | 4 | 9 | 3 | 4 | 5 | 4 | 4 | 9 | 3 | 5 | 4 | 4
CC(=O)OCc1nc(C(F)(F)F)ccc1C(=O)C1=C([O-])C2CCC(C2)C1=O.[K+] (centres unmarked) [A833-B52 (K+)] | 1 | 2 | 1 | 2 | 2 | 1 | 3 | 3 | 3 | 3 | 4 | 3 | 3 | 2
CC(=O)OCc1nc(C(F)(F)F)ccc1C(=O)C1=C(O)C2CCC(C2)C1=O (centres unmarked) [A833-B52, (H4), 3-(2-Hydroxy-4-oxobicyclo[3.2.1]oct-2-en-3-carbonyl)-6-trifluoromethylpyridin-2-yl methyl acetate] | 1 | 1 | 1 | 1 | 1 | 1 | 3 | 2 | 3 | 3 | 4 | 2 | 3 | 1
O=C(C1=C(O)C2CCC(C2)C1=O)c1ccc(C(F)(F)F)nc1COCC(F)(F)F (centres unmarked) [A834-B52] | 1 | 2 | 1 | 1 | 1 | 1 | 2 | 1 | 1 | 1 | 2 | 2 | 1 | 2
COCCOCCOCc1nc(C(F)(F)F)ccc1C(=O)C1=C(O)C2CCC(C2)C1=O (centres unmarked) [A835-B52] | 2 | 1 | 2 | 2 | 1 | 1 | 2 | 2 | 1 | 1 | 2 | 2 | 1 | 3
C#CCCOCc1nc(C(F)(F)F)ccc1C(=O)C1=C(O)C2CCC(C2)C1=O (centres unmarked) [A836-B52] | 5 | 2 | 3 | 2 | 1 | 1 | 2 | 2 | 1 | 2 | 2 | 3 | 2 | 3
CCN(CC)CC.O=C(C1=C(O)C2CCC(C2)C1=O)c1ccc(C(F)(F)F)nc1COC1CCCO1 (centres unmarked) [A837-B52 (Et3NH+)] | 1 | 1 | 1 | 1 | 2 | 1 | 2 | 2 | 1 | 2 | 2 | 2 | 2 | 2
CCC(OC)OCCOCc1nc(C(F)(F)F)ccc1C(=O)C1=C(O)C2CCC(C2)C1=O (centres unmarked) [A838-B52] | 1 | 1 | 1 | 3 | 2 | 1 | 1 | 2 | 1 | 2 | 3 | 2 | 2 | 2
CC(C)(C)C(=O)OCc1nc(C(F)(F)F)ccc1C(=O)C1=C(O)C2CCC(C2)C1=O (centres unmarked) [A839-B52] | 1 | 1 | 1 | 3 | 2 | 1 | 2 | 2 | 1 | 2 | 2 | 2 | 2 | 2
C=CCOCCOCc1nc(C(F)(F)F)ccc1C(=O)C1=C(O)C2CCC(C2)C1=O (centres unmarked) [A840-B52] | 2 | 2 | 1 | 2 | 2 | 1 | 3 | 2 | 1 | 3 | 4 | 3 | 2 | 3
CCCOCCOCc1nc(C(F)(F)F)ccc1C(=O)C1=C(O)C2CCC(C2)C1=O (centres unmarked) [A841-B52] | 1 | 1 | 1 | 2 | 1 | 1 | 3 | 1 | 1 | 4 | 4 | 3 | 2 | 3
O=C(C1=C(O)C2CCC(C2)C1=O)c1ccc(C(F)(F)F)nc1COCCOC1CCCCO1 (centres unmarked) [A842-B52] | 2 | 2 | 1 | 6 | 2 | 1 | 3 | 2 | 1 | 3 | 5 | 3 | 3 | 3
